The nature of one series: in vitro. The format is cell-based, human. Conditions: human; 300 µmol/L, about 24 hours, PMA-differentiated HL-60 cells, LDH activity; no-treatment group 0%, cell lysis buffer-treated group 100%; read-out: cytotoxicity (%) Evaluation compound results. Here is the method: An HL-60 cell line (human acute promyelocytic leukemia cells) was successively cultured in RPMI 1640 containing 20% fetal bovine serum (FBS) at 37°C in 95% atmosphere/5% CO2. Before evaluation, the cells were pre-cultured for about 72 hours in the presence of 10 nM phorbol 12-myristate 13-acetate (PMA) to induce macrophage-like differentiation.
Evaluation compounds were dissolved in DMSO to obtain 30 mmol/L solutions (or suspensions). Each DMSO solution was diluted 100-fold with RPMI 1640 containing 2% FBS (final concentration of the compound: 300 µmol/L) to obtain a treatment solution. The culture supernatant of the differentiated HL-60 cells was removed, and each treatment solution was added and cultured for about 24 hours, followed by cytotoxicity evaluation.
The activity of lactate dehydrogenase (LDH) was measured in the treatment solutions exposed to the cells for about 24 hours by using a commercial kit (Cytotoxicity LDH Assay Kit-WST, Dojindo Laboratories) and a plate reader (Tecan Infinite M1000). The obtained measurement values were used to calculate cytotoxicity (%) as comparison values for each evaluation compound-treated group, with the no-treatment group taken as 0% and the cell lysis buffer-treated group taken as 100%. The test was conducted in triplicate in three wells each, and the average values were used as adopted values.

The format of series [1] is physicochemical. Particulars: 37°C, 60 minutes; for Concentration of brexpiprazole formed / Concentration of evaluation compound decreased: Tris-hydrochloric acid buffer (pH 7.5) 50 mmol/L, magnesium chloride 5 mmol/L, evaluation compound 1 µmol/L, average of duplicate; for stability in the buffer / conversion to brexpiprazole (in words): Tris-hydrochloric acid buffer (pH 7.5). In outline: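 Stability in buffer assessed as brexpiprazole formation: duplicate reactions at 37°C, started by adding compound to pre-warmed solution, quenched at 0 or 60 min with internal-standard-containing acetonitrile/isopropanol (4:1). Calibration curves covered 0.01, 0.1 and 1 µmol/L of compound and brexpiprazole.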

As to `CCOP(=O)([O-])OC[N+]1(CCCCOc2ccc3ccc(=O)[nH]c3c2)CCN(c2cccc3sccc23)CC1` [EX 3, (4-(benzo[b]thiophen-4-yl)-1-(4-((2-oxo-1,2-dihydroquinolin-7-yl)oxy)butyl)piperazin-1-ium-1-yl)methyl ethyl phosphate], the cytotoxicity at 24 h, 300 µM in the series “in vitro” was -7%. In series [1], the “Concentration of brexpiprazole formed” value came out at 0 nM and the “Concentration of evaluation compound decreased” value was 10 nM.

Take `CC(C)(C)OP(=O)([O-])OC[N+]1(CCCCOc2ccc3ccc(=O)[nH]c3c2)CCN(c2cccc3sccc23)CC1` [EX 4, (4-(benzo[b]thiophen-4-yl)-1-(4-((2-oxo-1,2-dihydroquinolin-7-yl)oxy)butyl)piperazin-1-ium-1-yl)methyl tert-butyl phosphate]: the cytotoxicity at 24 h, 300 µM in “in vitro” is -5%. Also, in series [1], the “Concentration of brexpiprazole formed” value turned out to be 0 nM and the “Concentration of evaluation compound decreased” value is 20 nM.

For `CC(C)OP(=O)([O-])OC[N+]1(CCCCOc2ccc3ccc(=O)[nH]c3c2)CCN(c2cccc3sccc23)CC1` [EX 5, (4-(benzo[b]thiophen-4-yl)-1-(4-((2-oxo-1,2-dihydroquinolin-7-yl)oxy)butyl)piperazin-1-ium-1-yl)methyl isopropyl phosphate], in “in vitro”, the cytotoxicity at 24 h, 300 µM is -4%. In series [1], the “Concentration of brexpiprazole formed” value amounted to 0 nM and the “Concentration of evaluation compound decreased” value was 70 nM.

For `O=c1ccc2ccc(OCCCC[N+]3(COP(=O)([O-])OCCCO)CCN(c4cccc5sccc45)CC3)cc2[nH]1` [EX 6, (4-(benzo[b]thiophen-4-yl)-1-(4-((2-oxo-1,2-dihydroquinolin-7-yl)oxy)butyl)piperazin-1-ium-1-yl)methyl (3-hydroxypropyl) phosphate], in “in vitro”, the cytotoxicity at 24 h, 300 µM stood at 16%. Also, in series [1], the “Concentration of brexpiprazole formed” value was found to be 0 nM and the “Concentration of evaluation compound decreased” value was -110 nM.

Consider `COCCOCCOP(=O)([O-])OC[N+]1(CCCCOc2ccc3ccc(=O)[nH]c3c2)CCN(c2cccc3sccc23)CC1` [EX 7, (4-(benzo[b]thiophen-4-yl)-1-(4-((2-oxo-1,2-dihydroquinolin-7-yl)oxy)butyl)piperazin-1-ium-1-yl)methyl (2-(2-methoxyethoxy)ethyl)phosphate], for which the cytotoxicity at 24 h, 300 µM in “in vitro” is -4%. In series [1], the “Concentration of brexpiprazole formed” value stood at 0 nM and the “Concentration of evaluation compound decreased” value was -60 nM.

Take `CCOC(=O)COP(=O)([O-])OC[N+]1(CCCCOc2ccc3ccc(=O)[nH]c3c2)CCN(c2cccc3sccc23)CC1` [EX 8, (4-(benzo[b]thiophen-4-yl)-1-(4-((2-oxo-1,2-dihydroquinolin-7-yl)oxy)butyl)piperazin-1-ium-1-yl)methyl (2-ethoxy-2-oxoethyl)phosphate]: the cytotoxicity at 24 h, 300 µM in “in vitro” came out at 15%. Besides, in series [1], the “Concentration of brexpiprazole formed” value was found to be 10 nM and the “Concentration of evaluation compound decreased” value was found to be 70 nM.

Regarding `O=c1ccc2ccc(OCCCC[N+]3(COP(=O)([O-])OCCO)CCN(c4cccc5sccc45)CC3)cc2[nH]1` [EX 9, (4-(benzo[b]thiophen-4-yl)-1-(4-((2-oxo-1,2-dihydroquinolin-7-yl)oxy)butyl)piperazin-1-ium-1-yl)methyl (2-hydroxyethyl)phosphate], in “in vitro”, the cytotoxicity at 24 h, 300 µM was -2%.

For the molecule `CC(C)OCCOP(=O)([O-])OC[N+]1(CCCCOc2ccc3ccc(=O)[nH]c3c2)CCN(c2cccc3sccc23)CC1` [EX 13, (4-(benzo[b]thiophen-4-yl)-1-(4-((2-oxo-1,2-dihydroquinolin-7-yl)oxy)butyl)piperazin-1-ium-1-yl)methyl (2-isopropoxyethyl)phosphate], the cytotoxicity at 24 h, 300 µM in the series “in vitro” was -5%. Moreover, in series [1], the “Concentration of brexpiprazole formed” value worked out at 0 nM and the “Concentration of evaluation compound decreased” value was found to be 30 nM.

On to `O=c1ccc2ccc(OCCCC[N+]3(COP(=O)([O-])OCCN4CCOCC4)CCN(c4cccc5sccc45)CC3)cc2[nH]1` [EX 14, (4-(benzo[b]thiophen-4-yl)-1-(4-((2-oxo-1,2-dihydroquinolin-7-yl)oxy)butyl)piperazin-1-ium-1-yl)methyl (2-morpholinoethyl)phosphate], for which the cytotoxicity at 24 h, 300 µM in the series “in vitro” is -10%. In addition, in series [1], the “Concentration of brexpiprazole formed” value amounted to 0 nM and the “Concentration of evaluation compound decreased” value amounted to 80 nM.

`O=C(OCCCN1CCOCC1)OCOP(=O)([O-])OC[N+]1(CCCCOc2ccc3ccc(=O)[nH]c3c2)CCN(c2cccc3sccc23)CC1` [EX 146]: in series [1], the “Concentration of brexpiprazole formed” value worked out at 0 nM and the “Concentration of evaluation compound decreased” value is 110 nM.

Take `CCOC(=O)C1CCN(CCOP(=O)([O-])OC[N+]2(CCCCOc3ccc4ccc(=O)[nH]c4c3)CCN(c3cccc4sccc34)CC2)CC1` [EX 147]: in series [1], the “Concentration of brexpiprazole formed” value worked out at 0 nM and the “Concentration of evaluation compound decreased” value worked out at 70 nM.

For `CC(C)(C)C(=O)OP(=O)([O-])OC[N+]1(CCCCOc2ccc3ccc(=O)[nH]c3c2)CCN(c2cccc3sccc23)CC1` [EX 150], in series [1], the “Concentration of brexpiprazole formed” value came out at 0 nM and the “Concentration of evaluation compound decreased” value turned out to be 110 nM.

In the case of `CCNP(=O)([O-])OC[N+]1(CCCCOc2ccc3ccc(=O)[nH]c3c2)CCN(c2cccc3sccc23)CC1` [EX 151], in series [1], the “Concentration of brexpiprazole formed” value worked out at 0 nM and the “Concentration of evaluation compound decreased” value is -10 nM.

As for `COCCNP(=O)([O-])OC[N+]1(CCCCOc2ccc3ccc(=O)[nH]c3c2)CCN(c2cccc3sccc23)CC1` [EX 152], in series [1], the “Concentration of brexpiprazole formed” value turned out to be 0 nM and the “Concentration of evaluation compound decreased” value was 10 nM.

Consider `CCOC(=O)CNP(=O)([O-])OC[N+]1(CCCCOc2ccc3ccc(=O)[nH]c3c2)CCN(c2cccc3sccc23)CC1` [EX 154], for which, in series [1], the “Concentration of brexpiprazole formed” value was 0 nM and the “Concentration of evaluation compound decreased” value came to 20 nM.

Regarding `CC(C)(C)OC(=O)CNP(=O)([O-])OC[N+]1(CCCCOc2ccc3ccc(=O)[nH]c3c2)CCN(c2cccc3sccc23)CC1` [EX 155], in series [1], the “Concentration of brexpiprazole formed” value came to 0 nM and the “Concentration of evaluation compound decreased” value worked out at 160 nM.

As for `CCOC(=O)[C@H](C)NP(=O)([O-])OC[N+]1(CCCCOc2ccc3ccc(=O)[nH]c3c2)CCN(c2cccc3sccc23)CC1` [EX 156], in series [1], the “Concentration of brexpiprazole formed” value was 0 nM and the “Concentration of evaluation compound decreased” value came to 170 nM.

Regarding `C[C@H](NP(=O)([O-])OC[N+]1(CCCCOc2ccc3ccc(=O)[nH]c3c2)CCN(c2cccc3sccc23)CC1)C(=O)OC(C)(C)C` [EX 157], in series [1], the “Concentration of brexpiprazole formed” value worked out at 0 nM and the “Concentration of evaluation compound decreased” value came out at 80 nM.

With `C[C@H](NP(=O)([O-])OC[N+]1(CCCCOc2ccc3ccc(=O)[nH]c3c2)CCN(c2cccc3sccc23)CC1)C(N)=O` [EX 158], in series [1], the “Concentration of brexpiprazole formed” value is 0 nM and the “Concentration of evaluation compound decreased” value was 70 nM.

For the molecule `CC(C)OC(=O)[C@H](C)NP(=O)([O-])OC[N+]1(CCCCOc2ccc3ccc(=O)[nH]c3c2)CCN(c2cccc3sccc23)CC1` [EX 159], in series [1], the “Concentration of brexpiprazole formed” value is 0 nM and the “Concentration of evaluation compound decreased” value was 60 nM.

For the molecule `O=C(OCOP(=O)([O-])OC[N+]1(CCCCOc2ccc3ccc(=O)[nH]c3c2)CCN(c2cccc3sccc23)CC1)N1CCOCC1` [EX 160], in series [1], the “Concentration of brexpiprazole formed” value is 0 nM and the “Concentration of evaluation compound decreased” value is -10 nM.

For the molecule `CCC(=O)OC[N+]1(CCCCOc2ccc3ccc(=O)[nH]c3c2)CCN(c2cccc3sccc23)CC1.[I-]` [REX 5, 4-(Benzo[b]thiophen-4-yl)-1-(4-((2-oxo-1,2-dihydroquinolin-7-yl)oxy)butyl)-1-((propionyloxy)methyl)piperazin-1-ium iodide, reference compound], in series [1], the “Concentration of brexpiprazole formed” value is 260 nM, the “Concentration of evaluation compound decreased” value is 200 nM and the “stability in the buffer / conversion to brexpiprazole (in words)” value (“stability in the buffer / conversion” for short) is recorded as “clearly degraded to brexpiprazole”.

Take `CCCCCC(=O)OC[N+]1(CCCCOc2ccc3ccc(=O)[nH]c3c2)CCN(c2cccc3sccc23)CC1.[I-]` [REX 6, 4-(Benzo[b]thiophen-4-yl)-1-((hexanoyloxy)methyl)-1-(4-((2-oxo-1,2-dihydroquinolin-7-yl)oxy)butyl)piperazin-1-ium iodide, reference compound]: in series [1], the “Concentration of brexpiprazole formed” value was 210 nM, the “Concentration of evaluation compound decreased” value came to 220 nM and the “stability in the buffer / conversion” value is reported as “clearly degraded to brexpiprazole”.

For `CCCCCCOC(=O)OC[N+]1(CCCCOc2ccc3ccc(=O)[nH]c3c2)CCN(c2cccc3sccc23)CC1.[I-]` [REX 7, 4-(Benzo[b]thiophen-4-yl)-1-((((hexyloxy)carbonyl)oxy)methyl)-1-(4-((2-oxo-1,2-dihydroquinolin-7-yl)oxy)butyl)piperazin-1-ium iodide, reference compound], in series [1], the “Concentration of brexpiprazole formed” value was determined as 240 nM, the “Concentration of evaluation compound decreased” value was found to be 270 nM and the “stability in the buffer / conversion” value is on record as “clearly degraded to brexpiprazole”.
